Among the data in the METLIN SMRT retention time set (Domingo-Almenara et al. 2019) are RP-LC retention time values, retold here.

The nature of the data set: gradient 5% acetonitrile 3 min, to 50% in 2 min, to 85% in 15 min, held 3 min, 100 µL/min. The following applies: column: Zorbax Extend-C18 2.1 x 50 mm; eluents: water / acetonitrile, 0.1% formic acid. A digest of the protocol: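 A Zorbax Extend-C18 column (2.1 × 50 mm, 1.8 μm) run at 100 μL/min with water and acetonitrile, both containing 0.1% formic acid, separated mixtures of ~100 pure standards. The HPLC was coupled to a quadrupole time-of-flight mass spectrometer operated in positive and negative ionization mode, with dead and dwell volumes of 40 μL and 900 μL. Each retention time was taken from a computationally picked adduct peak that was then manually inspected.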
Turning to `Cc1cccc(-n2c(=O)c3c(cc(C)n3C)n(CC(=O)Nc3c(C)cc(C)cc3C)c2=O)c1`, the RP-LC retention time was determined as 914 s. The result for `CC1=NS(=O)(=O)N(C)C=C1C(=O)OCc1cccc(Cl)c1` reads 968 s; that for `CCOCC1CCC2(CCN(S(=O)(=O)c3ccc(C)c(F)c3)CC2)O1` (centres undefined), 1090 s; that for `CCCc1cc(N2CCN(C(=O)c3cccc(C#N)c3)CC2)nc2nncn12`, 604 s. Take `COC(=O)c1ccc(NC(=O)N2CCC(n3cnc4ccc(Cl)cc4c3=O)CC2)cc1`: the RP-LC retention time was found to be 830 s.

Molecule `Cc1sc2ccn(CC(C)C)c(=O)c2c1C(=O)N1CCCCC1` yielded an RP-LC retention time of 837 s.

`Cc1cc2nn(CC(=O)N3CCC(C)CC3)c(=O)n2c(-c2ccc(F)cc2)n1`: the RP-LC retention time worked out at 816 s. The result for `O=C1C(=O)N(Cc2ccc(C(=O)N3CCCCCC3)cc2)CCN1Cc1ccc(F)cc1` reads 728 s. Molecule `O=C(NC1CC1)c1snc(-c2ccccn2)c1NC(=O)C1CC1` registered an RP-LC retention time of 720 s. Regarding `CCOc1nc2ccccc2nc1N1CCCC(C(=O)Nc2ccc(Cl)cc2C)C1` (centres undefined), the RP-LC retention time was 1300 s.

For the molecule `O=C(NC1CC1)[C@@H]1C[C@H](Oc2ccccc2)CN1C(=O)c1n[nH]c2ccccc12`, the RP-LC retention time turned out to be 739 s. Under `CCOC(=O)CNC(=O)N1CCc2c(c(C(=O)N3CCCCC3)nn2C)C1` stands 643 s; under `CCOC(=O)c1[nH]c(C)c(CCC(=O)N2CCC(C(=O)NCc3ccc(CC)cc3)CC2)c1C`, 867 s; under `O=C(Nc1ccc(OC(F)(F)F)cc1)C1CCCN(C(=O)c2cc(-c3ccncc3)n[nH]2)C1` (centres undefined), 692 s.

Molecule `Cn1c(=O)c(N2CCCC(C(=O)NCc3cccc(Br)c3)C2)nc2ccccc21` (centres undefined) came in with an RP-LC retention time of 998 s. Under `Cc1ccc(CNC(=O)C2CCCN2S(=O)(=O)c2cc3c(cc2C)NC(=O)C(C)O3)cc1` (centres undefined) stands 824 s; under `CCNS(=O)(=O)c1cccc(-c2nc(-c3ccc(C)cc3)no2)c1`, 1100 s; under `CN(CCc1noc(COc2ccccc2)n1)C(=O)Nc1ccc(F)cc1`, 876 s. For `CCn1cc(S(=O)(=O)N2CCCC(n3c(C)cnc3-c3ccccc3)C2)cn1` (centres undefined), the RP-LC retention time turned out to be 639 s. The result for `CCCc1noc(-c2ccnc(-n3ncc(C(=O)Nc4ccc(C)c(F)c4)c3C)c2)n1` reads 1170 s; that for `CCOC(=O)C1=C(O)C(=O)N(Cc2ccccc2)C1`, 834 s; that for `O=C(CC1CCN(S(=O)(=O)c2ccc(Cl)s2)CC1)N1CCN(c2ccccn2)CC1`, 672 s. Molecule `CCNC(=O)c1cc(N2CCCC2)nc2ccccc12` displayed an RP-LC retention time of 841 s. The result for `O=C(CSc1nc(-c2ccccc2)ns1)Nc1nc2ccccc2s1` reads 1000 s; that for `O=C(N[C@@H]1CN(c2ncccn2)C[C@H]1CO)c1ccc(F)cn1`, 595 s.

For `CCCCN1C(=O)c2ccccc2C(C(=O)NCc2cccnc2)C12CCCCC2` (centres undefined), the RP-LC retention time came out at 678 s. `O=C(CCSc1ccccc1)NCC(O)c1cccc2ccccc12` (centres undefined) displayed an RP-LC retention time of 841 s.

The molecule `Cn1c(C2CCN(S(=O)(=O)c3ccccc3Cl)CC2)cc(=O)n2nccc12` came in with an RP-LC retention time of 708 s.

The molecule `O=C(NCC1CCCO1)c1ncoc1-c1ccccc1C(=O)N1CCCCC1` (centres undefined) displayed an RP-LC retention time of 692 s. The result for `COc1ccc(C2CCCN2C(=O)c2cc(C)on2)cc1` (centres undefined) reads 786 s. The result for `CC12CC(c3ccccc3O1)C(C(=O)N1CCN(C(=O)c3ccco3)CC1)C(=O)N2` (centres undefined) reads 624 s; that for `NC1(Cc2ccc(Cl)cc2)CCN(c2ncnc3[nH]ccc23)CC1`, 602 s. The result for `COc1cccc(-c2noc(Cc3nnc(-c4cc(C)cc(C)c4)o3)n2)c1OC` reads 1060 s.

On to `O=C(NCc1ccc(N2CCOCC2)cc1)c1cccc2c1CCN2C(=O)C1CC1`, for which the RP-LC retention time is 735 s. As to `COc1cccc(Cn2nnc(C(=O)O)c2-c2cccc(OC)c2)c1`, the RP-LC retention time was determined as 782 s. The result for `O=C1C2N=NN(Cc3nc(-c4ccc5c(c4)OCO5)no3)C2C(=O)N1c1ccc2c(c1)CCC2` (centres undefined) reads 1000 s.

`CCc1ccc(-n2cc(C(=O)OCc3cc(=O)n4ccccc4n3)c3ccccc3c2=O)cc1` showed an RP-LC retention time of 991 s.

`COCc1nc2cccnc2n1C1CCN(C(=O)Nc2cc(OC)ccc2OC)CC1` displayed an RP-LC retention time of 696 s. The result for `COc1ccc(-c2nnc(-c3cccc(S(=O)(=O)N4CCOCC4)c3)o2)cc1` reads 868 s. Under `CN1CCC(OC2CCN(C(=O)CC3CCCC3)CC2)CC1` stands 596 s; under `O=C(NC1CCCC1)NC1CCN(c2nc3cccnc3n(Cc3ccccc3)c2=O)CC1`, 990 s; under `CCOC(=O)c1ccc(NC(=O)N(Cc2cccs2)C2CCN(CC)CC2)cc1`, 670 s.

As for `COc1ccc2nc(Nc3nc(-c4ccncc4)cs3)sc2c1`, the RP-LC retention time came out at 584 s. The result for `CCc1ccc(CNC(=O)Cc2c(C(=O)O)c(C)cn2C)cc1` reads 815 s. Regarding `O=C(Nc1nc2c(s1)CCCC2C(=O)N1CCOCC1)c1ccc(Cl)cc1` (centres undefined), the RP-LC retention time is 759 s. Under `O=C(Nc1nccs1)C1CCN(C(=O)c2ccccn2)CC1` stands 555 s; under `Cc1nc2c(ccc3nc(NC(=O)c4ccc(N5C(=O)CCC5=O)cc4)sc32)s1`, 717 s. Under `O=C(NCc1nc(-c2ccc(-c3csc(C4CC4)n3)cc2)no1)c1ccco1` stands 830 s. In turn, `CN(Cc1ccccc1)C(=O)CN1C(=O)C(C(=O)N2CCCCCC2)Sc2ccccc21` (centres undefined) came in with an RP-LC retention time of 945 s.

`CCOC(=O)Cc1cc(=O)oc2cc(O)ccc12` displayed an RP-LC retention time of 677 s.

On to `CCOc1ccc(-c2nc(C3CC(=O)N(c4ccc(C)cc4)C3)no2)cc1OCC` (centres undefined), for which the RP-LC retention time worked out at 1090 s. For `Cc1ccccc1-c1nc(-c2ccc(N3CCSCC3)nc2)no1`, the RP-LC retention time came to 1320 s. Under `O=C(Cc1csc2ccccc12)N1CCN(C(=O)Nc2ccccc2Cl)CC1` stands 889 s; under `O=C(N1[C@H]2CC[C@@H]1c1cnc(-c3ccc(F)cc3)nc1C2)C1(c2ccccc2)CC1`, 1070 s; under `COc1ccc(NC(=O)C2CCCN(Cc3nc(-c4cccs4)no3)C2)cc1Cl` (centres undefined), 728 s.

As to `O=S(=O)(c1cccc(-c2nnc(-c3ccc(F)cc3)o2)c1)N1CCCCCC1`, the RP-LC retention time turned out to be 1110 s.

`Cc1cc(C2CCCN2C(=O)Cc2ccc(F)cc2Cl)on1` (centres undefined) registered an RP-LC retention time of 851 s.

On to `O=C(NCCS(=O)(=O)N1CCc2ccccc2C1)c1cc(=O)c2ccccc2o1`, for which the RP-LC retention time was found to be 733 s. In the case of `COc1ccc(C(O)CN2CCN(c3cccc(C)c3)CC2)cc1` (centres undefined), the RP-LC retention time amounted to 671 s. For `CN1CC=C(c2noc(CCC(=O)N3CCC(c4ccccc4)C3)n2)CC1` (centres undefined), the RP-LC retention time worked out at 631 s. For the molecule `CCOC(=O)c1c(C)[nH]c(C)c1S(=O)(=O)N1CCC(C(=O)Nc2ccc(C)c(N(C)C)c2)CC1`, the RP-LC retention time worked out at 616 s. Molecule `Cc1ccccc1C(=O)Nc1nc(-c2ccc3c(c2)NC(=O)C(C)O3)c(C)s1` (centres undefined) returned an RP-LC retention time of 797 s.

In turn, `COc1ccc2c(c1)C1(CCN(C(=O)C(C)C)C1)C(=O)N2` (centres undefined) gave an RP-LC retention time of 646 s. As for `COc1cccc2c1OC1(CCN(C(C)=O)CC1)N1N=C(c3cccs3)CC21` (centres undefined), the RP-LC retention time was determined as 835 s. The result for `CC(C)NC(=O)C1CCN(c2nc3ccc(-c4ccccc4F)nc3s2)CC1` reads 915 s; that for `Cc1ccc(N(C)S(=O)(=O)c2cc(-c3[nH]ncc3C(=O)N3CCCCC3)oc2C)cc1`, 835 s. The result for `Cc1ccc(NC(=O)N2C[C@@H](F)C[C@H]2C(=O)N2CCc3ccccc3C2)cc1` reads 807 s; that for `Cc1ccc(-c2nnc(Cc3nc(-c4ccccc4C)no3)o2)cc1C`, 842 s; that for `O=C(Cn1ccc2ccn(Cc3ccccc3)c2c1=O)NCc1cccs1`, 872 s. The molecule `CC(NC(=O)C1CCN(CCc2cn(C)c3ncccc23)CC1)c1ccccc1` (centres undefined) registered an RP-LC retention time of 644 s. `CC(=O)N1CCC(CC(=O)N2CCCCCCN(C)C(=O)[C@@H]3CCC[C@@H]32)CC1`: the RP-LC retention time stood at 663 s. Under `Cc1[nH]c(C(=O)N2CCC(CC(=O)NCc3cccc(Cl)c3)CC2)c(C)c1C(=O)OC(C)C` stands 868 s; under `CC(=O)N1CCc2cc(N3CC(C(=O)Nc4ccc(F)c(F)c4)CC3=O)ccc21` (centres undefined), 726 s. In turn, `Cc1cc(C)c2c(N3CCCC3)nc(C(=O)NCc3cccnc3)nc2n1` displayed an RP-LC retention time of 537 s. As to `O=C(c1c(F)cccc1Cl)N1CCN(c2ccc3nnc(-c4ccco4)n3n2)CC1`, the RP-LC retention time was determined as 680 s. Under `CCN1CCN(CCCNC(=O)c2cc3sccc3n2C)CC1` stands 569 s; under `O=C(NCc1ccccc1)c1nnc(-c2ccc(S(=O)(=O)N3CCCC3)cc2)o1`, 879 s; under `COC(=O)c1c(-c2cccs2)csc1NC(=O)c1cc(OC)c(OC)c(OC)c1`, 1120 s.

`Cc1[nH]c(C(=O)N2CCC(CC(=O)NCCCN3CCC(N4CCCCC4)CC3)CC2)c(C)c1C`: the RP-LC retention time is 575 s.
